Laboratory results published in ChEMBL document CHEMBL1155988, “Spiro-naphthyridinone piperidines as inhibitors of S. aureus and E. coli enoyl-ACP reductase (FabI)” (Bioorg Med Chem Lett, 2009).
≈ marks a conversion by molar mass, not a printed value.

Tests used:
[1] = target: T1, Enoyl-[acyl-carrier-protein] reductase [NADH] FabI (Escherichia coli K-12, UniProt P0AEK4); test: Inhibition of Escherichia coli FabI assessed as effect on NAD(P)H consumption
T1 sequence (P0AEK4 whole entry): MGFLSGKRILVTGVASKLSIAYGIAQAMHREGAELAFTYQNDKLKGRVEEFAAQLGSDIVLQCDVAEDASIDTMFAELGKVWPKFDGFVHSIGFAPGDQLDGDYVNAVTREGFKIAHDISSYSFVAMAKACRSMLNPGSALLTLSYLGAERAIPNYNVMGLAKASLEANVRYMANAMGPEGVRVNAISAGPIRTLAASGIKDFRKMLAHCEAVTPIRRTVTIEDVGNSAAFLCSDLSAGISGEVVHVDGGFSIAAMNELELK

Staphylococcus aureus [2] = test: Antibacterial activity against methicillin-resistant Staphylococcus aureus 43300 by microdilution method; format: functional
[3] = Aqueous solubility at pH 7.4; format: physicochemical
Escherichia coli = test: Antibacterial activity against Escherichia coli AG100A […] by microdilution method; format: functional
Staphylococcus aureus [4] = test: Antibacterial activity against Staphylococcus aureus 29213 by microdilution method; format: functional
[5] = target: T2, Enoyl-[acyl-carrier-protein] reductase [NADPH] FabI (Staphylococcus aureus, UniProt Q6GI75); test: Inhibition of Staphylococcus aureus FabI
T2 sequence (Q6GI75 whole entry): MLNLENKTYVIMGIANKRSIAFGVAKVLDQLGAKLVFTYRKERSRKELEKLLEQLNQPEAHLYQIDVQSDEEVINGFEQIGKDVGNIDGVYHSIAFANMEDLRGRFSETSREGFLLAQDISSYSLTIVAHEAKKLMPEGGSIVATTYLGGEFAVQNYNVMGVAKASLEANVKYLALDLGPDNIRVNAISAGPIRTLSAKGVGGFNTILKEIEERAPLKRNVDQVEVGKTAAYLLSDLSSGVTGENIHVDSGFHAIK

[6] = Aqueous solubility at pH 4.0; format: physicochemical

Question: For `CN(Cc1cc2ccccc2n1C)C(=O)/C=C/c1cnc2c(c1)CCC(=O)N2`, which IC50 [1] is on record?
Answer: 139 nM

Question: What about the MIC (Staphylococcus aureus [2]) of the same molecule?
Answer: 0.016 µg/mL (≈ 0.0427 µM)

Question: What about the solubility [3] of the same molecule?
Answer: 5.8 µg/mL (≈ 15.5 µM)

Question: What about the MIC (Escherichia coli) of the same molecule?
Answer: ≤ 0.063 µg/mL

Question: What about the MIC (Staphylococcus aureus [4]) of the same molecule?
Answer: ≤ 0.016 µg/mL

Question: Which IC50 [5] does the source give for `CCCOc1c(CN(C)C(=O)/C=C/c2cnc3c(c2)CC2(CCNCC2)C(=O)N3)cccc1OC` here?
Answer: 71 nM

Question: What about the solubility [6] of the same molecule?
Answer: 700 µg/mL (≈ 1460 µM)

Question: And the MIC (Staphylococcus aureus [2])?
Answer: 0.5 µg/mL (≈ 1.04 µM)

Question: And the solubility [3]?
Answer: 520 µg/mL (≈ 1090 µM)

Question: What about the MIC (Escherichia coli) of the same molecule?
Answer: 2 µg/mL (≈ 4.18 µM)

Question: And the MIC (Staphylococcus aureus [4])?
Answer: 0.125 µg/mL (≈ 0.261 µM)

Question: With `Cc1c(CN(C)C(=O)/C=C/c2cnc3c(c2)CN(CCN2CCOCC2)C(=O)N3)sc2ccccc12` as the molecule, how does the IC50 [5] read?
Answer: 26 nM

Question: And the solubility [6]?
Answer: > 67 µg/mL

Question: What about the IC50 [1] of the same molecule?
Answer: 7 nM

Question: What about the MIC (Staphylococcus aureus [2]) of the same molecule?
Answer: ≤ 0.063 µg/mL

Question: What about the solubility [3] of the same molecule?
Answer: 6.1 µg/mL (≈ 12.1 µM)

Question: What about the MIC (Escherichia coli) of the same molecule?
Answer: ≤ 0.063 µg/mL

Question: What about the MIC (Staphylococcus aureus [4]) of the same molecule?
Answer: ≤ 0.063 µg/mL

Question: Which IC50 [5] does the source give for `Cc1c(CN(C)C(=O)/C=C/c2cnc3c(c2)CC2(CCNCC2)C(=O)N3)sc2ccccc12` here?
Answer: 48 nM

Question: What about the solubility [6] of the same molecule?
Answer: 22 µg/mL (≈ 47.8 µM)

Question: And the IC50 [1]?
Answer: 0.4 nM

Question: What about the MIC (Staphylococcus aureus [2]) of the same molecule?
Answer: 0.063 µg/mL (≈ 0.137 µM)

Question: And the solubility [3]?
Answer: 4.8 µg/mL (≈ 10.4 µM)

Question: And the MIC (Escherichia coli)?
Answer: ≤ 0.063 µg/mL

Question: And the MIC (Staphylococcus aureus [4])?
Answer: ≤ 0.016 µg/mL

Question: Which results are given for `Cc1c(CN(C)C(=O)/C=C/c2cnc3c(c2)CCC(=O)N3)sc2ccccc12`?
Answer: IC50 [5]: 30 nM; MIC (Staphylococcus aureus [2]): 0.063 µg/mL (≈ 0.161 µM); MIC (Escherichia coli): 4 µg/mL (≈ 10.2 µM); MIC (Staphylococcus aureus [4]): 0.125 µg/mL (≈ 0.319 µM)

Question: Which IC50 [5] does the source give for `Cc1c(CN(C)C(=O)/C=C/c2cnc3c(c2)CC2(CCN(C)CC2)C(=O)N3)sc2ccccc12` here?
Answer: 14 nM

Question: What about the solubility [6] of the same molecule?
Answer: 360 µg/mL (≈ 758 µM)

Question: And the IC50 [1]?
Answer: 2.4 nM

Question: What about the MIC (Staphylococcus aureus [2]) of the same molecule?
Answer: ≤ 0.016 µg/mL

Question: And the solubility [3]?
Answer: 110 µg/mL (≈ 232 µM)

Question: What about the MIC (Escherichia coli) of the same molecule?
Answer: ≤ 0.063 µg/mL

Question: And the MIC (Staphylococcus aureus [4])?
Answer: ≤ 0.016 µg/mL

Question: Which results are given for `Cc1c(CN(C)C(=O)/C=C/c2cnc3c(c2)CC2(CCN(C)CC2)C(=O)N3)sc2ccc(F)cc12`?
Answer: IC50 [5]: 28 nM; solubility [6]: 790 µg/mL (≈ 1600 µM); IC50 [1]: 24 nM; MIC (Staphylococcus aureus [2]): ≤ 0.016 µg/mL; solubility [3]: 110 µg/mL (≈ 223 µM); MIC (Escherichia coli): ≤ 0.063 µg/mL; MIC (Staphylococcus aureus [4]): ≤ 0.016 µg/mL

Question: For `Cc1c(CN(C)C(=O)/C=C/c2cnc3c(c2)CC2(CCN(C)CC2)C(=O)N3)oc2ccccc12`, which IC50 [5] is on record?
Answer: 20 nM

Question: What about the solubility [6] of the same molecule?
Answer: 83 µg/mL (≈ 181 µM)

Question: What about the IC50 [1] of the same molecule?
Answer: 1.8 nM

Question: What about the MIC (Staphylococcus aureus [2]) of the same molecule?
Answer: ≤ 0.016 µg/mL

Question: And the solubility [3]?
Answer: 43 µg/mL (≈ 93.8 µM)

Question: What about the MIC (Escherichia coli) of the same molecule?
Answer: 0.25 µg/mL (≈ 0.545 µM)

Question: What about the MIC (Staphylococcus aureus [4]) of the same molecule?
Answer: ≤ 0.016 µg/mL

Question: With `CCCOc1c(CN(C)C(=O)/C=C/c2cnc3c(c2)CC2(CCN(C)CC2)C(=O)N3)cccc1OC` as the molecule, how does the IC50 [5] read?
Answer: 26 nM

Question: And the solubility [6]?
Answer: 1500 µg/mL (≈ 3040 µM)

Question: What about the IC50 [1] of the same molecule?
Answer: 55 nM

Question: And the MIC (Staphylococcus aureus [2])?
Answer: 0.125 µg/mL (≈ 0.254 µM)

Question: What about the solubility [3] of the same molecule?
Answer: 1000 µg/mL (≈ 2030 µM)

Question: And the MIC (Escherichia coli)?
Answer: 4 µg/mL (≈ 8.12 µM)

Question: What about the MIC (Staphylococcus aureus [4]) of the same molecule?
Answer: 0.031 µg/mL (≈ 0.0629 µM)

Question: For `CN(Cc1cc2ccccc2n1C)C(=O)/C=C/c1cnc2c(c1)CC1(CCNCC1)C(=O)N2`, which IC50 [5] is on record?
Answer: 132 nM

Question: And the solubility [6]?
Answer: > 100 µg/mL

Question: And the IC50 [1]?
Answer: 17 nM

Question: What about the MIC (Staphylococcus aureus [2]) of the same molecule?
Answer: 2 µg/mL (≈ 4.51 µM)

Question: What about the solubility [3] of the same molecule?
Answer: > 100 µg/mL

Question: What about the MIC (Escherichia coli) of the same molecule?
Answer: 0.5 µg/mL (≈ 1.13 µM)

Question: What about the MIC (Staphylococcus aureus [4]) of the same molecule?
Answer: 0.5 µg/mL (≈ 1.13 µM)

Question: What does the source list for `Cc1c(CN(C)C(=O)/C=C/c2cnc3c(c2)CC2(CCNCC2)C(=O)N3)oc2ccccc12`?
Answer: IC50 [5]: 49 nM; solubility [6]: 1500 µg/mL (≈ 3370 µM); IC50 [1]: 0.7 nM; MIC (Staphylococcus aureus [2]): 0.031 µg/mL (≈ 0.0697 µM); solubility [3]: 100 µg/mL (≈ 225 µM); MIC (Escherichia coli): ≤ 0.063 µg/mL; MIC (Staphylococcus aureus [4]): 0.031 µg/mL (≈ 0.0697 µM)
